Experimental data from US10947273B2, “Peptides of use in the preventive and curative treatment of alopecia” (Institut Europeen de Biologie Cellulaire, priority 2015, dated 2021).
The star is where a group is joined. Palmitoyl = CCCCCCCCCCCCCCCC(=O)*

Experiments:
Format in all cases: cell-based, human
[1] = system: NGF; assay: NGF secretion by NHDF (ELISA/BioPlex); conditions: 48h
Method: (§1) NHDF, HFDPC, HHFK and NHEM cells were treated with the peptides studied for 48h. At the end of the treatment, cell supernatants were collected and stored at −80° C. until analysis. The factors of interest secreted into the supernatant were assayed by ELISA® (R&D) or BioPlex® (BioRad®).
(§2) The results are expressed as percent increase in the concentration of the factor present in the supernatant relative to the untreated control. The intensity of the effect varies as a function of the concentration of the peptide studied and of the cell type treated.

[2] = system: NGF; assay: NGF secretion by HFDPC (ELISA/BioPlex); conditions: 10^−9 M, 48h
Method: as §1, §2

[3] = system: PDGF; assay: PDGF secretion by HFDPC (ELISA/BioPlex); conditions: 48h
Method: as §1, §2

[4] = system: VEGF; assay: VEGF secretion by HFDPC (ELISA/BioPlex); conditions: 10^−7 M, 48h
Method: as §1, §2

[5] = system: VEGF; assay: qPCR (TLDA) VEGF gene expression in HFDPC; conditions: peptide 10^−5 M (table title), 24 hours, relative to untreated controls
Method: (§3) RNA was extracted and purified from cell pellets using the RNA XS Kit (Macherey-Nagel). RNA quantification was carried out with a NanoDrop device and sample quality was verified on a Bioanalyzer with RNA 6000 Nano chips (Agilent). cDNA was synthesized from 300 ng of RNA using the High-Capacity cDNA Reverse Transcription Kit (LifeTech). Quality-control qPCR assays of the cDNA were carried out in microplates on the reference gene, GAPDH, and the SIRT1 gene.
(§4) Final qPCR experiments were carried out in a 1 μl volume on microfluidic cards (TaqMan Low Density Arrays, LifeTech) and the ABI 7900HT qPCR device. Amplification reactions were performed in duplicate using 1 to 2 ng of cDNA per qPCR reaction and TaqMan Universal Master Mix II (LifeTech).
(§5) Ct values were obtained using the RQ Manager software. For analyses of qPCR results, Ct values were limited to 35 cycles and the duplicate assays are averaged. The GeneXPro software was used for the studies of stability and of selection of the best reference genes. Expression variations are calculated by the relative quantification method and are expressed as percent increase in expression of the gene of interest relative to the untreated controls.

[6] = system: HGF; assay: HGF secretion by NHDF (ELISA/BioPlex); conditions: 48h
Method: as §1, §2

[7] = system: genes whose expression is reduced in subjects characterized by alopecia; assay: qPCR (TLDA) overall statement, genes involved in alopecia, HFDPC; conditions: summary of Table 1
Method: (§6) To study the effect of 9 peptides on these genes, HFDPC were treated for 24 hours with the molecules tested at 10^−7M and 10^−9M concentrations.
as §3, §4, §5

[8] = system: HGF; assay: HGF secretion by HFDPC (ELISA/BioPlex); conditions: 48h
Method: as §1, §2

[9] = system: KGF; assay: KGF secretion by HFDPC (ELISA/BioPlex); conditions: 48h
Method: as §1, §2

[10] = system: VEGF; assay: VEGF secretion by NHDF (ELISA/BioPlex); conditions: 48h
Method: as §1, §2

[11] = system: PDGF; assay: qPCR (TLDA) PDGF gene expression in HFDPC; design: dose or concentration left out as unconfirmed; conditions: peptide, 24 hours, relative to untreated controls
Method: as §3, §4, §5

[12] = system: KGF; assay: qPCR (TLDA) KGF gene expression in HFDPC; design: dose or concentration left out as unconfirmed; conditions: peptide, 24 hours, relative to untreated controls
Method: as §3, §4, §5

[13] = system: IGF1; assay: qPCR (TLDA) IGF1 gene expression in HFDPC; conditions: peptide 10^−9, 24 hours, relative to untreated controls
Method: as §6, §3, §4, §5

[14] = system: HGF; assay: HGF secretion by HHFK (ELISA/BioPlex); conditions: 10^−7 M, 48h
Method: as §1, §2

[15] = system: SCF; assay: SCF secretion by NHDF (ELISA/BioPlex); conditions: 48h
Method: as §1, §2

Substance	NGF secretion, percent increase relative to untreated control ([1]; 10^−9 M)	% stimulation VEGF gene expression [5] [%]	HGF secretion, percent increase relative to untreated control ([6]; 10^−9 M)	stimulation of genes whose expression is reduced in alopecia (in words) [7]	% stimulation KGF gene expression [12] [%]	HGF secretion, percent increase relative to untreated control ([6]; 10^−7 M)	HGF secretion, percent increase relative to untreated control ([8]; 10^−5 M)	HGF secretion, percent increase relative to untreated control ([8]; 10^−7 M)	SCF secretion, percent increase relative to untreated control ([15]; 10^−7 M)	other results
Palm-Ala-Arg-Pro-Ala-Lys-NH2 (Palmitoyl-ARPAK-NH2; SMILES CCCCCCCCCCCCCCCC(=O)N[C@@H](C)C(=O)N[C@@H](CCCNC(=N)N)C(=O)N1CCC[C@H]1C(=O)N[C@@H](C)C(=O)N[C@@H](CCCCN)C(N)=O) [(3)]	NGF 89%	83	HGF 5%	stimulate several genes	–	–	–	–	–	NGF secretion, percent increase relative to untreated control [2]: NGF 6%; PDGF secretion, percent increase relative to untreated control ([3]; 10^−9 M): PDGF 39%; VEGF secretion, percent increase relative to untreated control [4]: VEGF 9%; HGF secretion, percent increase relative to untreated control ([8]; 10^−9 M): HGF 33%; KGF secretion, percent increase relative to untreated control ([9]; 10^−7 M): KGF 53%; KGF secretion, percent increase relative to untreated control ([9]; 10^−9 M): KGF 45%; VEGF secretion, percent increase relative to untreated control ([10]; 10^−9 M): VEGF 48%
Palm-Ala-Arg-Pro-Ala-Lys-OH (Palmitoyl-ARPAK-OH; SMILES CCCCCCCCCCCCCCCC(=O)N[C@@H](C)C(=O)N[C@@H](CCCNC(=N)N)C(=O)N1CCC[C@H]1C(=O)N[C@@H](C)C(=O)N[C@@H](CCCCN)C(=O)O) [(2)]	–	11	–	stimulate several genes	71	HGF 13%	HGF 403%	HGF 565%	SCF 37%	% stimulation PDGF gene expression [11]: 29%; % stimulation IGF1 gene expression [13]: 136% (10^−9); HGF secretion, percent increase relative to untreated control [14]: HGF 28%; SCF secretion, percent increase relative to untreated control ([15]; 10^−5 M): SCF 24%
Palm-Ala-Arg-Pro-Ala-Ala-NH2 (Palmitoyl-ARPAA-NH2; SMILES CCCCCCCCCCCCCCCC(=O)N[C@@H](C)C(=O)N[C@@H](CCCNC(=N)N)C(=O)N1CCC[C@H]1C(=O)N[C@@H](C)C(=O)N[C@@H](C)C(N)=O) [(4)]	NGF 18%	–	HGF 95%	–	–	HGF 188%	–	–	SCF 6%	NGF secretion, percent increase relative to untreated control ([1]; 10^−7 M): NGF 12%; PDGF secretion, percent increase relative to untreated control ([3]; 10^−7 M): PDGF 8%; SCF secretion, percent increase relative to untreated control ([15]; 10^−9 M): SCF 8%; VEGF secretion, percent increase relative to untreated control ([10]; 10^−7 M): VEGF 9%
H-Arg-Pro-Ala-Lys-OH (H-RPAK-OH) [(8)]	–	–	–	–	14	–	HGF 26%	HGF 129%	–	HGF secretion, percent increase relative to untreated control ([6]; 10^−5 M): HGF 8%
